Data: patent US8759504B2, “Cholinergic/serotoninergic receptor and uses thereof” (AbbVie Inc., priority 2007, dated 2014)
Where two headings read alike, the source gives them in different places.

Columns and labels:
Chimera 1 = Chimera 1 (Homo sapiens, UniProt P36544, M226I/T225V); assay: [3H]A-585539 radioligand binding, HEK-293 membranes; set-up: expressed in transfected cells; conditions: membranes of HEK-293 cells expressing Chimera 1; read-out: Radioligand Binding KD ± SEM
Chimera 2 = Chimera 2 (Homo sapiens, UniProt P36544, M226I/T225V); assay: [3H]A-585539 radioligand binding, HEK-293 membranes/homogenates; set-up: expressed in transfected cells
Chain of Chimera 2 (P36544 with tags, fused parts or gaps T225V/M226I): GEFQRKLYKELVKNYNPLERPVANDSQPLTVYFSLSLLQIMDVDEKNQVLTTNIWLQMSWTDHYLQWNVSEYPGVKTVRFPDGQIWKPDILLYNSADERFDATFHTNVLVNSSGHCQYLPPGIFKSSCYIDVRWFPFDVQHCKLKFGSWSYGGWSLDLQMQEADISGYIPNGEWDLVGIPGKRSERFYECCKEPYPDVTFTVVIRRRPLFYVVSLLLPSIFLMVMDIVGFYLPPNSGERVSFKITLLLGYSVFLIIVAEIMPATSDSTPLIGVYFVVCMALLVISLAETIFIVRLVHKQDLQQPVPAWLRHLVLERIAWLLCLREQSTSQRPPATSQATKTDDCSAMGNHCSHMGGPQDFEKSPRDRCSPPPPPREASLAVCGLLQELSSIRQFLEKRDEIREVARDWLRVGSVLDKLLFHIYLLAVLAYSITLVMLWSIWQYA

Chain of Chimera 1 (P36544 with tags, fused parts or gaps T225V/M226I): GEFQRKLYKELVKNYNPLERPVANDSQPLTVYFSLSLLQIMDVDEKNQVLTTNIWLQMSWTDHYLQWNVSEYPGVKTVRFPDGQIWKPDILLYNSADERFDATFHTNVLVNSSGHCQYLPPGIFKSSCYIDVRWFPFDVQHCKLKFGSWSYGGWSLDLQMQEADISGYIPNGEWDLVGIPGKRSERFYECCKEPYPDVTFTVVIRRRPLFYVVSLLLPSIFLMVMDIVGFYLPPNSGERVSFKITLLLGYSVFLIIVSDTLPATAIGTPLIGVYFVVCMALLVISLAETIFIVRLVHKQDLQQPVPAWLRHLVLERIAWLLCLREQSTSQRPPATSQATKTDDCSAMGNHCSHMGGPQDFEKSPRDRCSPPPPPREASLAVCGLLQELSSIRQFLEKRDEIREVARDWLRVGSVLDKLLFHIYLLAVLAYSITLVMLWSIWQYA

## C[N+]1(C)C[C@@H]2C[C@H]1CN2c1ccc(-c2ccccc2)nn1.[I-] [[^3H]A585539, [^3H]-(S,S)-2,2-dimethyl-5-(6-phenyl-pyridazin-3-yl)-5-aza-2-azonia-bicyclo[2.2.1]heptane iodide]
Chimera 1
  Kd: 0.65 nM
Chimera 2; 10 μM genistein, 4 μg/well
  Bmax, saturation binding: 6058.0±809.3 fmol/mg protein
Chimera 2; 10 μM genistein, 4 μg/well, read-out: Kd, saturation binding
  Kd: 0.1 ± 0.01 nM
Chimera 2; 10 μM genistein, 20 μg/well
  Bmax, saturation binding: 7251.0±587.8 fmol/mg protein
Chimera 2; 10 μM genistein, 20 μg/well, read-out: Kd, saturation binding
  Kd: 0.18 ± 0.01 nM
Chimera 2; absence of genistein
  Bmax, representative saturation binding: 6014 fmol/mg protein
Chimera 2; absence of genistein, read-out: Kd, representative saturation binding
  Kd: 0.15 nM
Chimera 2; homogenates of HEK-293-Chimera 2 cells
  Bmax: 29167 fmol/mg protein
Chimera 2; membranes of HEK-293 cells expressing Chimera 2, read-out: Radioligand Binding KD ± SEM
  Kd: 0.17 nM
Chimera 2; presence of 10 μM genistein
  Bmax, representative saturation binding: 6528 fmol/mg protein
Chimera 2; presence of 10 μM genistein, read-out: Kd, representative saturation binding
  Kd: 0.17 nM
Chimera 2; without genistein, 4 μg/well
  Bmax, saturation binding: 5979.0±530.3 fmol/mg protein
Chimera 2; without genistein, 4 μg/well, read-out: Kd, saturation binding
  Kd: 0.11 ± 0.01 nM
Chimera 2; without genistein, 20 μg/well
  Bmax, saturation binding: 7016.0±798.2 fmol/mg protein
Chimera 2; without genistein, 20 μg/well, read-out: Kd, saturation binding
  Kd: 0.17 ± 0.02 nM
